Assay results from PMC7463582, “Modulation and Protection Effects of Antioxidant Compounds against Oxidant Induced Developmental Toxicity in Zebrafish” (Antioxidants, 2020).
Counter-ions that a name gives are not always drawn.

Experiments:
zebrafish embryos [1] = conditions: for Change of dysmorphogenic effects of LPS / Shift of the LPS lethality concentration–effect curve / Shift of the TCHQ concentration–response curves for lethality and dysmorphogenesis / Shift of the tBOOH concentration–response curves (lethality and dysmorphogenesis) / Mortality of embryos exposed to tBOOH after pre-exposure: pre-exposure to the modulator at MTC; for Change of dysmorphogenic effects of LPS / Shift of the LPS lethality concentration–effect curve: then LPS, versus LPS alone; for Shift of the TCHQ concentration–response curves for lethality and dysmorphogenesis: then TCHQ, versus TCHQ alone; for Shift of the tBOOH concentration–response curves (lethality and dysmorphogenesis) / Mortality of embryos exposed to tBOOH after pre-exposure: then tBOOH; for Shift of the tBOOH concentration–response curves (lethality and dysmorphogenesis): versus tBOOH alone
zebrafish embryos [2] = assay: Zebrafish embryo test: lethality and dysmorphogenesis after exposure to a single oxidative stress-related compound; type: in vivo, Zebrafish (Danio rerio); conditions: for EC50: read-out: EC50 (effective concentration 50 for dysmorphogenesis)
Method: (§1) To characterize the effects on embryonic development produced by compounds related to OS, ZF embryos were exposed to OS inducers, modulators of antioxidant status and antioxidants. For compounds which were dissolved in DMSO and diluted with Danieau’s buffer, a vehicle negative control group with 0.05% DMSO in 0.3× Danieau’s buffer was assayed.
(§2) From 26 to 50 hpf, embryos were incubated with 0.3× Danieau’s buffer with or without DMSO, depending on the dissolution of the compound of study.
(§3) Exposure to OS inducers was conducted from 26 to 50 hpf to select the working concentrations of these compounds for the experimental design. In this case, from 2 to 26 hpf, embryos were incubated with Danieau’s buffer with or without DMSO, depending on the dissolution of the compound of study.
(§4) Exposure of ZF embryos was semi-static and was carried out in 6-well plates (Greiner Bio-one, Frickenhausen, Germany). Ten embryos per group were selected and randomly distributed into the wells and filled with 5mL of the corresponding solution of the compound. Embryos were incubated at 26 ± 1 °C with a dark–light cycle of 10–14 h. Renewal of the medium and of the solutions was made every 24 h. Evaluation of the embryos was performed at different time points. Lethality was determined at 8, 26, and 50 hpf based on egg coagulation, the absence of tail detachment, or somite formation and the absence of heartbeat. Dysmorphogenic effects were evaluated at 50 hpf by the total morphological score system described by. For each compound of study, at least three independent experiments were performed using embryos from different spawning events (n = 3).
(§5) The percentage of lethality and of dysmorphogenesis was calculated per compound at every tested concentration, and the concentration–response curves for these effects were plotted.

[3] = as above; type: in vivo, Zebrafish (Danio rerio); conditions: zebrafish, in vivo, read-out: LC50 (lethal concentration 50)
Method: as §1, §2, §3, §4, §5

zebrafish embryos [4] = assay: animal or person; conditions: Danio rerio, read-out: EC50 (95% CI) for dysmorphogenesis of tBOOH
zebrafish embryos [5] = assay: animal or person; conditions: Danio rerio
in vivo = conditions: zebrafish
[6] = exposure window 2–26 hpf, not calculated, reason in footnote
[7] = Danio rerio, exposure window 2–26 hpf, evaluated at 50 hpf

Row | Compound | Change of dysmorphogenic effects of LPS (zebrafish embryos [1]) | Shift of the LPS lethality concentration–effect curve (zebrafish embryos [1]) | Shift of the TCHQ concentration–response curves for lethality and dysmorphogenesis (zebrafish embryos [1]) | Shift of the tBOOH concentration–response curves (lethality and dysmorphogenesis) (zebrafish embryos [1]) | MTC (maximum tolerable concentration) (zebrafish embryos [2]; exposure window 2–26 hpf) | LC50 [3, 6] | EC50 (zebrafish embryos [2]; [7]) | also measured
1 | CCCCS(=N)(=O)CCC(N)C(=O)O (racemic) [DL-buthionine sulfoximine (BSO), DL-buthionine sulfoximine] | no significant effects were observed | shifted the lethality concentration–effect curves significantly | statistically significant drift in the concentration–effect curves for lethality and dysmorphogenesis to lower concentrations of TCHQ | a significant shift in the concentration–response curves to lower concentrations of tBOOH | 50 µM | – | – | EC50 (zebrafish embryos [2]; exposure window 2–26 hpf, evaluated at 50 hpf): 2720 µM
2 | CCOC(=O)/C=C\C(=O)OCC [Diethyl maleate (DEM), diethyl maleate] | no significant effects were observed | shifted the lethality concentration–effect curves significantly | statistically significant drift in the concentration–effect curves for lethality and dysmorphogenesis to lower concentrations of TCHQ | a significant shift in the concentration–response curves to lower concentrations of tBOOH | 0.5 µM | < 100 µM | 1.5 µM | –
3 | CC(=O)N[C@@H](CS)C(=O)O [N-acetyl-L-cysteine (NAC), N-acetyl-L-cysteine] | no significant effects were observed | – | – | – | 250 µM | – | 921 µM | Mortality of embryos exposed to tBOOH after pre-exposure (zebrafish embryos [1]): no significant effects in mortality of the embryos were observed; LC50 (95% CI) of LPS after pre-exposure to the modulator (zebrafish embryos [1]; zebrafish, in vivo, pH 7.4): 51.6 µg/mL * (48.8–54.5); LC50 (95% CI) of TCHQ after pre-exposure to the modulator (zebrafish embryos [1]; zebrafish, in vivo, pH 7.4): 19.6 µM * (16.6–23.3); LC50 ([3]; exposure window 2–26 hpf): 1870 µM
4 | COC(=O)[C@@H](N)CCCNC(N)=N[N+](=O)[O-] [Nω-nitro L-arginine methyl ester hydrochloride] | significant reduction in dysmorphogenic effects | shifted the lethality concentration–effect curves significantly | significantly shifted to higher concentrations of TCHQ | significantly drifted the tBOOH concentration–response curves to higher concentrations | 5 µM | > 100 µM | 44.4 µM | Mortality of embryos exposed to tBOOH after pre-exposure (zebrafish embryos [1]): no significant effects in mortality of the embryos were observed
5 | O=c1c(O)c(-c2ccc(O)c(O)c2)oc2cc(O)cc(O)c12 [Quercetin, quercetin hydrate] | – | – | – | – | 20 µM | > 30 µM | – | –
6 | CC(C)(C)OO [Tert-butyl hydroperoxide (tBOOH), Tert-butyl hydroperoxide] | – | – | – | – | – | – | – | EC50 (zebrafish embryos [2]; Danio rerio, exposure window 26–50 hpf, evaluated at 50 hpf): 1600 µM; EC50 (zebrafish embryos [4]): 1640 µM; EC50 (zebrafish embryos [5]; read-out: EC50 (95% CI) for dysmorphogenesis of tBOOH): 1640 µM
7 | Oc1c(Cl)c(Cl)c(O)c(Cl)c1Cl [Tetrachlorohydroquinone (TCHQ), Tetrachlorohydroquinone] | – | – | – | – | – | – | – | LC50 (in vivo): 15.2 µM; LC50 ([3]; exposure window 26–50 hpf): 16 µM; EC50 (zebrafish embryos [2]; Danio rerio): 3.9 µM; Compound-specific dysmorphogenic effect (zebrafish embryos [2]; exposure 26–50 hpf): produced an effect in the pigmentation of the embryos; EC50 (zebrafish embryos [5]; read-out: EC50 (95% CI) for dysmorphogenesis of TCHQ): 8.84 µM
8 | (±)-α-tocopherol [Vit. E] | – | – | – | – | 100 µM | – | – | LC50 (zebrafish embryos [2]; exposure window 2–26 hpf, not calculated, reason in footnote, read-out: LC50 (lethal concentration 50)): > 30 µM
